# Experimental data as given in the supplement of paper PMC10307832.
# Columns and labels:
# Test in all cases: relative viability (nuclei count vs DMSO), 5 days (fraction); higher = more cells survive
# [1] = compound: COc1cc2nccc(Oc3ccc(NC(=O)C4(C(=O)Nc5ccc(F)cc5)CC4)cc3)c2cc1OC [Cabozantinib] + Nc1nc2[nH]cc(CCc3ccc(C(=O)N[C@@H](CCC(=O)O)C(=O)O)cc3)c2c(=O)[nH]1 [Pemetrexed] (partner 0.2 µM)
# Outline: (§1)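 Lung cancer cell lines in 1536-well plates were dosed by pin tool the day after seeding, either with one drug alone or with a fixed anchor-drug dose plus five library-drug doses (not always all listed) in √10 steps. After 5 days, cells were fixed and their nuclei stained in one step (final 0.05% Triton X-100, 1% formaldehyde, 1 ug/ml Hoechst), then counted on 4× images. Relative viability is the nuclei count in treated wells divided by that in vehicle wells. Values are medians of duplicate plates.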
# Zosuquidar + Lapatinib = compound: O[C@@H](COc1cccc2ncccc12)CN1CCN([C@@H]2c3ccccc3[C@@H]3[C@H](c4ccccc42)C3(F)F)CC1 [Zosuquidar] + CS(=O)(=O)CCNCc1ccc(-c2ccc3ncnc(Nc4ccc(OCc5cccc(F)c5)c(Cl)c4)c3c2)o1 [Lapatinib] (partner 2 µM)
# Outline: as §1
# Zosuquidar + Tozasertib = compound: O[C@@H](COc1cccc2ncccc12)CN1CCN([C@@H]2c3ccccc3[C@@H]3[C@H](c4ccccc42)C3(F)F)CC1 [Zosuquidar] + Cc1cc(Nc2cc(N3CCN(C)CC3)nc(Sc3ccc(NC(=O)C4CC4)cc3)n2)n[nH]1 [Tozasertib] (partner 0.1 µM)
# Outline: as §1
# Zosuquidar + Bortezomib = compound: O[C@@H](COc1cccc2ncccc12)CN1CCN([C@@H]2c3ccccc3[C@@H]3[C@H](c4ccccc42)C3(F)F)CC1 [Zosuquidar] + CC(C)C[C@H](NC(=O)[C@H](Cc1ccccc1)NC(=O)c1cnccn1)B(O)O [Bortezomib] (partner 0.002 µM)
# Outline: as §1
Cell Line,relative viability ([1]; first compound 0.02 µM),relative viability ([1]; first compound 0.06325 µM),relative viability ([1]; first compound 0.2 µM),relative viability ([1]; first compound 0.6325 µM),relative viability ([1]; first compound 2 µM),relative viability (Zosuquidar + Lapatinib; first compound 0.01 µM),relative viability (Zosuquidar + Lapatinib; first compound 0.03162 µM),relative viability (Zosuquidar + Lapatinib; first compound 0.1 µM),relative viability (Zosuquidar + Lapatinib; first compound 0.3162 µM),relative viability (Zosuquidar + Lapatinib; first compound 1 µM),relative viability (Zosuquidar + Tozasertib; first compound 0.01 µM),relative viability (Zosuquidar + Tozasertib; first compound 0.03162 µM),relative viability (Zosuquidar + Tozasertib; first compound 0.1 µM),relative viability (Zosuquidar + Tozasertib; first compound 0.3162 µM),relative viability (Zosuquidar + Tozasertib; first compound 1 µM),relative viability (Zosuquidar + Bortezomib; first compound 0.01 µM),relative viability (Zosuquidar + Bortezomib; first compound 0.03162 µM),relative viability (Zosuquidar + Bortezomib; first compound 0.1 µM),relative viability (Zosuquidar + Bortezomib; first compound 0.3162 µM),relative viability (Zosuquidar + Bortezomib; first compound 1 µM)
SK-MES-1,1.02,1.01,1,0.904,0.937,0.448,0.401,0.445,0.495,0.517,0.797,1.01,0.97,0.942,0.857,,,,,
HCC-366,0.189,0.214,0.173,0.156,0.15,1.08,1.08,1.15,1.01,1.15,0.153,0.395,0.195,0.121,0.102,0.946,1.03,1.06,1.08,1.07
NCI-H3122,0.212,0.203,0.195,0.199,0.209,0.997,0.906,1,1.01,1.01,0.396,0.391,,0.466,0.379,0.942,0.93,0.979,1.04,0.996
COR-L 105,1.1,1.19,0.9,0.999,1.02,0.35,0.389,0.324,0.366,0.386,0.293,0.315,0.402,0.309,0.333,0.738,0.742,0.899,1.16,0.874
201T,0.311,0.351,0.305,0.336,0.313,0.996,1.05,0.881,1.02,0.997,0.876,0.907,0.888,0.993,0.854,1.09,1.05,0.939,1.05,1.06
NCI-H2228,0.348,0.305,0.338,0.283,0.276,1.2,0.937,0.956,1.06,1.21,0.213,0.272,0.252,0.208,0.272,1.06,1.02,0.634,1.14,1.17
LC-2-ad,0.279,0.285,0.271,0.278,0.253,0.994,1.05,0.993,0.989,0.958,0.461,0.491,0.51,0.522,0.463,1.07,0.975,0.989,1.26,0.933
NCI-H2087,0.612,0.711,0.614,0.752,0.665,0.931,0.776,1.06,1.19,1.19,0.266,,0.27,0.228,0.218,0.849,0.701,0.94,0.923,0.85
LK-2,,0.427,0.236,0.266,0.296,0.985,0.892,0.923,1.18,0.946,0.171,0.163,0.174,0.172,0.183,,,,,
H3255,0.52,0.646,,0.57,0.575,0.264,0.295,0.235,0.234,0.256,0.734,0.737,0.718,0.711,0.604,0.788,0.871,0.661,0.798,0.569
NCI-H2347,0.422,0.481,0.429,0.442,0.371,0.888,0.931,0.908,1.06,0.925,0.593,0.575,0.555,0.691,0.543,1.2,0.979,1.04,1.22,0.6
CAL-12T,1.37,1.14,1.25,1.19,1.09,0.716,0.84,,0.768,0.819,0.263,0.289,0.329,0.333,0.286,0.974,1.15,,1.03,0.735
A-427,0.949,1.04,0.995,1.02,1,1.07,1.02,0.842,1.07,1.01,0.205,0.247,0.271,0.218,0.192,0.923,0.971,0.87,1.06,0.901
HARA,0.244,0.234,,0.279,0.226,0.806,0.69,0.676,0.932,0.879,0.111,,0.112,0.0991,0.102,1.14,1.14,1.08,1.13,1.14
NCI-H2170,0.28,0.264,0.247,0.274,0.311,0.256,0.282,0.256,0.308,0.283,0.788,0.733,0.825,0.622,0.738,,,,,
NCI-H1623,,,,,,,,,,,0.43,0.33,0.435,0.421,0.407,,,,,
NCI-H2023,0.199,0.272,0.175,0.23,0.146,0.848,0.856,0.712,1.45,0.955,0.335,0.426,0.407,0.398,0.314,0.93,0.939,0.878,1.4,1.06
